Literature values, collected in US6348502B1, “Formulations for the treatment of gastro-oesophageal reflux” (Reckitt & Colman Products Limited, priority 1998, dated 2002).

Tests used:
[1] = system: topical injury by noxious agents such as ethanol; conditions: white rabbits, administered at the gastro-oesophageal junction via cannulae
[2] = system: capsaicin-sensitive neurones; conditions: rats; stimulation of capsaicin-sensitive neurones
[3] = system: gastric acid secretion; conditions: rats
[4] = system: acetic-acid induced gastric ulcers

## COc1cc(CNC(=O)CCCC/C=C/C(C)C)ccc1O [capsaicin, (E)-(N)-[(4-hydroxy-3-methoxphenyl)-methyl]-8-methyl-6-nonenamide]
[1]
  mucosal protection against topical injury: provides mucosal protection
[2]
  duodenal bicarbonate secretion: increase duodenal bicarbonate secretion
[3]
  effect on gastric acid secretion: no effect
[4]; acetic-acid induced gastric ulceration in rats
  protection of the gastric mucosa against experimental injury: protects the gastric mucosa against experimental injury
[4]; rats, introduced directly into an ex vivo chamber
  healing of acetic-acid induced gastric ulcers: promotes the healing
[4]; rats, prior administration of cimetidine
  healing of acetic-acid induced gastric ulcers after prior administration of cimetidine: blunted
